Measured values taken from US6919334B2, “Antidepressant azaheterocyclymethyl derivatives of 4,5-dihydroimidazo[1,4,5-de][1,4]benzoxazine” (Wyeth, priority 2002, dated 2005).

Experiments:
[1] = target: T1, serotonin transporter (Rattus norvegicus, UniProt P31652); assay: 3H-paroxetine displacement, affinity for the serotonin transporter; type: binding
T1 construct: displace ^3H-paroxetine from male rat frontal cortical membranes; from tissue; host or cells: male rat frontal cortex membranes

[2] = target: T2, cloned human 5-HT1A receptors (Homo sapiens, UniProt P08908); assay: 35S-GTPγS binding assay, antagonist activity at 5-HT1A receptors; type: biochemical; conditions: reversal of agonist 8-OHDPAT; for IC50: membranes with cloned human 5-HT1A, read-out: 5-HT1A Function IC50; for 5-HT1A Function (Imax), maximum inhibitory effect: value in parentheses
T2 construct: expressed in transfected cells
T2 sequence (P08908 1-422): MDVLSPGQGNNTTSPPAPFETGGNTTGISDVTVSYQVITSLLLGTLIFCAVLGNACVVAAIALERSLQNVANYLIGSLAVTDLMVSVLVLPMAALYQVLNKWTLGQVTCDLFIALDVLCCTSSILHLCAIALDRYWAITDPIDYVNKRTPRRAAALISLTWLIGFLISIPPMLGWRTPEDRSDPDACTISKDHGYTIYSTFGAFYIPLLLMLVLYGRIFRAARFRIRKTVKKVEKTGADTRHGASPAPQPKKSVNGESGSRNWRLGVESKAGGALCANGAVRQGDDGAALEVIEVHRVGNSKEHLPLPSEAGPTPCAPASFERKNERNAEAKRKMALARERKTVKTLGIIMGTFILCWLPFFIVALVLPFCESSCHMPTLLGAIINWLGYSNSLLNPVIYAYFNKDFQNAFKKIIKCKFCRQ
Procedure: Antagonist activity at 5-HT1A receptors was established by using a ^35S-GTPγS binding assay similar to that used by Lazareno and Birdsall (Br. J. Pharmacol. 109: 1120, 1993), in which the test compound's ability to affect the binding of ^35S-GTPγS to membranes containing cloned human 5-HT1A receptors was determined. Agonists produce an increase in binding whereas antagonists produce no increase but rather reverse the effects of the standard agonist 8-OHDPAT. The test compound's maximum inhibitory effect is represented as the Imax, while its potency is defined by the IC50.

[3] = target: T3, human 5-HT1A receptors (Homo sapiens, UniProt P08908); assay: [3H] 8-OHDPAT displacement from 5-HT1A receptor (transfected CHO cells); type: binding; conditions: percent displacement of [3H] 8-OHDPAT at 1 micromolar; CHO cells with human 5-HT1A
T3 construct: expressed in transfected cells; host or cells: CHO cells, stably transfected
T3 sequence (P08908 1-422): T2 sequence (P08908 1-422)
Source text: Affinity for the serotonin 5-HT1A receptor was established by testing the claimed compound's ability to displace [^3H] 8-OHDPAT (dipropylaminotetralin) from the 5-HT1A serotonin receptor following a modification of the procedure of Hall et al., J. Neurochem. 44, 1685 (1985), which utilizes CHO cells stably transfected with human 5-HT1A receptors.

T1 sequence (P31652 whole entry): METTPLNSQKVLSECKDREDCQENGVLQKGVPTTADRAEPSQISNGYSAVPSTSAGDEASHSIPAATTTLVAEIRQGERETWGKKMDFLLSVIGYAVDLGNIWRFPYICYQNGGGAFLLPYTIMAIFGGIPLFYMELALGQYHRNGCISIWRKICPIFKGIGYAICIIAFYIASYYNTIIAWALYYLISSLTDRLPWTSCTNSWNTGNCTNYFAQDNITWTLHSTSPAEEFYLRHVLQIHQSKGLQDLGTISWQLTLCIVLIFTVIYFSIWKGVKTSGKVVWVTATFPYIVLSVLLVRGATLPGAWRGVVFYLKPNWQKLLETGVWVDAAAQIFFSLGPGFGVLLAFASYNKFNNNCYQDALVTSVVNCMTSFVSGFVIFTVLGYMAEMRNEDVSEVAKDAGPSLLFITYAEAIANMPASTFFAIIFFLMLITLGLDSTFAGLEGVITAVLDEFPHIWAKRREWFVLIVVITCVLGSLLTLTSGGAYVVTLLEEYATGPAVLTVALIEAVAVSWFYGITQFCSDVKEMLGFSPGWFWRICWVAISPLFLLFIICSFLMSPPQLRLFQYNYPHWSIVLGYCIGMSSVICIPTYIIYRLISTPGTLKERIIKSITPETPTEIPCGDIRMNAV

Compound	Ki [1] [nM]	melting point [°C]	IC50 [2] [nM]	5-HT1A Function (Imax), maximum inhibitory effect [2]	5-HT1A Receptor Affinity % @ 1 μM [3] [%]
O=c1[nH]c2cccc3c2n1C(CN1CC=C(c2c[nH]c4ccc(Cl)cc24)CC1)CO3 (stereo not drawn) [Example 3, 4-{[4-(5-chloro-1H-indol-3-yl)-3,6-dihydropyridin-1(2H)-yl]methyl}-4,5-dihydroimidazo[1,5,4-de][1,4]benzoxazin-2(1H)-one]	15	153 to 155	300	30	81
N#Cc1ccc2[nH]cc(C3=CCN(CC4COc5cccc6[nH]c(=O)n4c56)CC3)c2c1 (stereo not drawn) [Example 4, 3-{1-[(2-Oxo-1,2,4,5-tetrahydroimidazo[1,5,4-de][1,4]benzoxazin-4-yl)methyl]-1,2,3,6-tetrahydropyridin-4-yl}-1H-indole-5-carbonitrile]	3.55	> 160	750	100	49
O=c1[nH]c2cccc3c2n1C(CN1CC=C(c2c[nH]c4ccc(F)cc24)CC1)CO3 (stereo not drawn) [Example 2]	2.08	152 to 155	300	30	36
O=c1[nH]c2cccc3c2n1C(CN1CC=C(c2c[nH]c4c(F)cccc24)CC1)CO3 (stereo not drawn) [Example 5, 4-{[4-(7-Fluoro-1H-indol-3-yl)-3,6-dihydropyridin-1(2H)-yl]methyl}-4,5-dihydroimidazo[1,5,4-de][1,4]benzoxazin-2(1H)-one]	1.23	> 120	750	100	48
Cc1nc2cccc3c2n1C(CN1CC=C(c2c[nH]c4ccccc24)CC1)CO3 (stereo not drawn) [Example 6, 4-{[4-(1H-indole-3-yl)-3,6-dihydropyridin-1(2H)-yl]methyl}-2-methyl-4,5-dihydroimidazo[1,5,4-de][1,4]benzoxazine]	1.86	222 to 225	450	100	39
O=c1[nH]c2cccc3c2n1C(CN1CC=C(c2c[nH]c4ccccc24)CC1)CO3 (stereo not drawn) [Example 1, 4-{[4-(1H-indol-3-yl)-3,6-dihydropyridin-1(2H)-yl]methyl}-4,5-dihydroimidazo[1,5,4-de][1,4]benzoxazin-2(1H)-one]	1.07	147 to 149	300	30	94
